Values after ≈ are worked out from the molar mass of the structure shown.
Tests used:
[1] = test system: Escherichia coli ATCC 11 775; assay: serial dilution test in microtiter system (bacteriostasis, MIC); format: cell-based; conditions: ATCC11, liquid medium, 18 to 20 h at 37°C, read-out: MHK-Werte E.coli ATCC 11 755
Description: (§1) Für die Untersuchungen wurde die Methode des Reihenverdünnungstestes im Mikrotitersystem angewandt. Die Prüfung der Substanzen auf Bakteriostase erfolgte in flüssigem Medium. Es wurde die Bakteriostasewirkung bei folgenden Konzentrationen untersucht.
(§2) Es wurde ein Nährboden folgender Zusammensetzung benutzt: 10 g Pepton, 8 g Fleischextrakt-Oxoid, 3 g Natriumschlorid, 2 g sek. Natriumphosphat werden mit dest. Wasser auf 1000 ml aufgefüllt (pH 7,2-7,4). Lediglich bei der Testung gegen Streptokokken wurde 1% Glucose hinzugefügt. Das Alter der Primärkulturen betrug etwa 20 Stunden. Die Einstellung der Keimsuspension erfolgte am Photometer (nach "Eppendorf") (Reagenzglas-Durchmesser 14 mm, Filter 546 nm) anhand der Trübung einer Bariumsulfat-Vergleichssuspension, die durch eine Bariumsulfat-Aufschwemmung erzeugt wurde, welche durch die Zugabe von 3,0 ml 1%ige Bariumchloridlösung in 97 ml 1%ige Schwefelsäure entstand. Nach der Einstellung wurden Streptococcus Aronson im Verhältnis 1:15 und die übrigen Testkeime im Verhältnis 1:1500 mit einer Kochsalzlösung weiter verdünnt.
(§3) 16 mg der jeweiligen Substanz wurden in 10 ml-Meßkolben eingewogen und mit dem Lösungsmittel bis zur Marke aufgefüllt. Die weitere Verdünnungsreihe wurde mit destilliertem Wasser oder dem jeweiligen Lösungsmittel hergestellt.
(§4) Die Vertiefungen der Mikrotiterplatten wurden mit 0,2 ml Nährmedium, 0,01 ml der entsprechenden Substanzverdünnung und mit einem Tropfen Keimsuspension (0,01 ml) beschickt und 18 bis 20 Stunden bei 37°C bebrütet. Eine Lösungsmittelkontrolle wurde stets mitgeführt.
(§5) Die Ablesung wurde makroskopisch vorgenommen, wobei die jeweilige Grenkonzentration (= niedrigste noch bakteriostatisch wirksame Konzentration) ermittelt wurde.
(§6) Als Testorganismen wurden benützt: - Staphylococcus aureus SG 511, Escherichia coli ATCC 11 775, Pseudomonas aeruginosa Hamburgensis und Walter, Serratia marcescens ATCC 13 880, Klebsiella pneumoniae ATCC 10 031 und BC 6, Proteus mirabilis Hamburgensis, Proteus rettgeri BC 7 und Enterobacter cloacae ATCC 13 047.
(§7) In der folgenden Tabelle 2 sind die ermittelten minimalen Hemmkonzentrationen (MIC) für typische Vertreter der erfindungsgemäßen Verbindungen aufgeführt, wobei sich die Ziffern auf die Penicilline der Tabelle 1 Seite 18 beziehen.

[2] = test system: Pseudomonas aeruginosa Walter; assay: as above; format: cell-based; conditions: liquid medium, 18 to 20 h at 37°C, read-out: MHK-Werte Pseud. aerug. Walter
Description: as §1, §2, §3, §4, §5, §6, §7

[3] = test system: Pseudomonas aeruginosa Hamburgensis; assay: as above; format: cell-based; conditions: liquid medium, 18 to 20 h at 37°C, read-out: MHK-Werte Pseud. aerug. Hbg.
Description: as §1, §2, §3, §4, §5, §6, §7

[4] = test system: Enterobacter cloacae ATCC 13 047; assay: as above; format: cell-based; conditions: ATCC13, liquid medium, 18 to 20 h at 37°C, read-out: MHK-Werte Eb. cloacae 13 047
Description: as §1, §2, §3, §4, §5, §6, §7

[5] = test system: Klebsiella pneumoniae BC 6; assay: as above; format: cell-based; conditions: BC6, liquid medium, 18 to 20 h at 37°C, read-out: MHK-Werte Kl. pneum. BC 6
Description: as §1, §2, §3, §4, §5, §6, §7

[6] = test system: Klebsiella pneumoniae ATCC 10 031; assay: as above; format: cell-based; conditions: ATCC10, liquid medium, 18 to 20 h at 37°C, read-out: MHK-Werte Kl. pneum. ATCC 10 031
Description: as §1, §2, §3, §4, §5, §6, §7

[7] = test system: Proteus rettgeri BC 7; assay: as above; format: cell-based; conditions: Providencia rettgeri, BC7; liquid medium, 18 to 20 h at 37°C; read-out: MHK-Werte Prot. rettg. BC 7
Description: as §1, §2, §3, §4, §5, §6, §7

[8] = test system: Staphylococcus aureus SG 511; assay: as above; format: cell-based; conditions: SG511, liquid medium, 18 to 20 h at 37°C, read-out: MHK-Werte Staph. aureus SG 511
Description: as §1, §2, §3, §4, §5, §6, §7

[9] = test system: Proteus mirabilis Hamburgensis; assay: as above; format: cell-based; conditions: liquid medium, 18 to 20 h at 37°C, read-out: MHK-Werte Prot. mir. Hbg.
Description: as §1, §2, §3, §4, §5, §6, §7

[10] = test system: Serratia marcescens ATCC 13 880; assay: as above; format: cell-based; conditions: ATCC13, liquid medium, 18 to 20 h at 37°C, read-out: MHK-Werte Serr. marcesc. ATCC 13 880
Description: as §1, §2, §3, §4, §5, §6, §7

[11] = test system: Pseudomonas aeruginosa Walter; assay: experimental intraperitoneal infection in mice, ED50 (survival); format: in vivo, Mäuse; conditions: sc, 168 h, female NMRI mice, i.p. infection, s.c. application, treated three times, 7 days observation, read-out: ED50 Pseud. aerug. Walter
Description: (§8) Eine Reihe der erfindungsgemäßen Verbindungen wurde in vivo bei experimentellen Infektionen an Mäusen untersucht. Man verwendete als pathogene Bakterien E.coli ATCC 11 775 und Pseudomonas aeruginosa Walter. Es wurde eine intraperitoneale Infektion mit 0,2 ml einer 5%igen Mucinsuspension der Bakterien gesetzt. Dies entspricht etwa 2x10^6 Keime E.coli bzw. 8x10^5 Keime Pseudomonas/Maus. Weibliche Mäuse vom Stamm NMRI wurden in Gruppen von jeweils 10 Tieren aufgeteilt, zwei Gruppen blieben unbehandelt, die restlichen Gruppen wurden mit verschiedenen Dosen der jeweiligen erfindungsgemäßen Penicilline zur Bestimmung der ED50 (Dosis, bei der 50 % der Tiere überleben) behandelt. Bei der E.coli-Infektion wurde einmal therapiert. Bei der Pseudomonas-Infektion wurde dreimal behandelt.
(§9) Der Beobachtungszeitraum betrug in beiden Fällen 7 Tage. Die Ergebnisse dieser Teste mit repräsentativen Vertretern der erfindungsgemäßen Penicilline sind in der Tabelle 3 dargestellt.

[12] = test system: E.coli ATCC 11 775; assay: as above; format: in vivo, Mäuse; conditions: Escherichia coli, ATCC 11 / ATCC 1175, sc, 168 h; female NMRI mice, i.p. infection, s.c. application, treated once, 7 days observation
Description: as §8, §9

MIC [1] [µg/mL]	MIC [2] [µg/mL]	MIC [3] [µg/mL]	MIC [4] [µg/mL]	MIC [5] [µg/mL]	MIC [6] [µg/mL]	MIC [7] [µg/mL]	MIC [8] [µg/mL]	MIC [9] [µg/mL]	MIC [10] [µg/mL]	Structure (SMILES)	ED50 [11] [mg/kg]	ED50 [12] [mg/kg]
0.25 (≈ 0.391 µM)	2 (≈ 3.13 µM)	2 (≈ 3.13 µM)	2 (≈ 3.13 µM)	1 (≈ 1.56 µM)	2 (≈ 3.13 µM)	0.5 (≈ 0.782 µM)	0.25 (≈ 0.391 µM)	0.12 (≈ 0.188 µM)	0.25 (≈ 0.391 µM)	C[S+]([O-])c1ccc(Nc2ncc(NC(=O)NC(C(=O)NC3C(=O)N4C3SC(C)(C)C4C(=O)O)c3ccccc3)c(O)n2)cc1 (stereo not shown) [Verbindung 21]	6.6	3
0.12 (≈ 0.183 µM)	2 (≈ 3.05 µM)	1 (≈ 1.53 µM)	2 (≈ 3.05 µM)	0.5 (≈ 0.763 µM)	0.5 (≈ 0.763 µM)	0.12 (≈ 0.183 µM)	0.25 (≈ 0.381 µM)	0.06 (≈ 0.0915 µM)	0.12 (≈ 0.183 µM)	CC1(C)SC2C(NC(=O)C(NC(=O)Nc3cnc(Nc4ccc(S(C)(=O)=O)cc4)nc3O)c3ccccc3)C(=O)N2C1C(=O)O (stereo not shown) [Verbindung 24]	7.5	4.7
0.25 (≈ 0.403 µM)	2 (≈ 3.22 µM)	1 (≈ 1.61 µM)	2 (≈ 3.22 µM)	2 (≈ 3.22 µM)	4 (≈ 6.44 µM)	0.25 (≈ 0.403 µM)	0.25 (≈ 0.403 µM)	0.06 (≈ 0.0967 µM)	0.25 (≈ 0.403 µM)	CC1(C)SC2C(NC(=O)C(NC(=O)Nc3cnc(Nc4ccc(C(N)=O)cc4)nc3O)c3ccccc3)C(=O)N2C1C(=O)O (stereo not shown) [Verbindung 34]		3.2
0.12 (≈ 0.193 µM)	2 (≈ 3.21 µM)	2 (≈ 3.21 µM)	0.5 (≈ 0.803 µM)	0.5 (≈ 0.803 µM)	0.5 (≈ 0.803 µM)	0.25 (≈ 0.402 µM)	0.25 (≈ 0.402 µM)	0.06 (≈ 0.0964 µM)	0.12 (≈ 0.193 µM)	CC1(C)SC2C(NC(=O)C(NC(=O)Nc3cnc(Nc4ccc([N+](=O)[O-])cc4)nc3O)c3ccccc3)C(=O)N2C1C(=O)O (stereo not shown) [Verbindung 41]		8.3

The next lines start with the compound.

Structure (SMILES)	MIC [1] [µg/mL]	MIC [2] [µg/mL]	MIC [3] [µg/mL]	MIC [4] [µg/mL]	MIC [5] [µg/mL]	MIC [6] [µg/mL]	MIC [7] [µg/mL]	MIC [8] [µg/mL]	MIC [9] [µg/mL]	MIC [10] [µg/mL]	ED50 [11] [mg/kg]	ED50 [12] [mg/kg]
CC1(C)SC2C(NC(=O)C(NC(=O)Nc3cnc(Nc4ccc(NC(N)=O)cc4)nc3O)c3ccc(O)cc3)C(=O)N2C1C(=O)O (stereo not shown) [Verbindung 43]	0.5 (≈ 0.767 µM)	1 (≈ 1.53 µM)	1 (≈ 1.53 µM)	4 (≈ 6.14 µM)	8 (≈ 12.3 µM)	8 (≈ 12.3 µM)	1 (≈ 1.53 µM)	0.5 (≈ 0.767 µM)	0.06 (≈ 0.0921 µM)	0.5 (≈ 0.767 µM)		5.6
CC1(C)S[C@@H]2[C@H](NC(=O)C(NC(=O)Nc3cnc(Nc4ccc(C(N)=O)c(O)c4)nc3O)c3ccc(O)cc3)C(=O)N2[C@H]1C(=O)O (stereo partly shown) [Verbindung 50]	0.25 (≈ 0.383 µM)	1 (≈ 1.53 µM)	1 (≈ 1.53 µM)	2 (≈ 3.06 µM)	2 (≈ 3.06 µM)	2 (≈ 3.06 µM)	0.5 (≈ 0.766 µM)	0.5 (≈ 0.766 µM)	0.06 (≈ 0.0919 µM)	0.25 (≈ 0.383 µM)		4
CC1(C)S[C@@H]2[C@H](NC(=O)C(NC(=O)Nc3cnc(NCc4ccc(O)cc4)nc3O)c3ccc(O)cc3)C(=O)N2[C@H]1C(=O)O (stereo partly shown) [Verbindung 57]	0.25 (≈ 0.401 µM)	1 (≈ 1.6 µM)	2 (≈ 3.21 µM)	1 (≈ 1.6 µM)	8 (≈ 12.8 µM)	4 (≈ 6.41 µM)	0.5 (≈ 0.802 µM)	0.25 (≈ 0.401 µM)	0.06 (≈ 0.0962 µM)	1 (≈ 1.6 µM)		7.2

Source: patent EP0051773A1, “Penicillins, their salts, process for their preparation and pharmaceutical compositions containing them” (Dr. Karl Thomae GmbH, priority 1980, dated 1982)
